Laboratory results taken from patent US11319318B2, “Pyridinones and isoquinolinones as inhibitors of the bromodomain BRD9” (Boehringer Ingelheim International GmbH, priority 2015, dated 2022).

Each compound was assayed against T1, bromodomain of BRD9 (GST fusion) / acetylated histone H4 peptide (BET Bromodomain Ligand) (Homo sapiens, UniProt Q9H8M2) (assay: BRD9-H4 Tetraacetylated Peptide Inhibition AlphaScreen).
T1 construct: A GST fusion protein of the bromodomain of BRD9; purchased BPS Biosciences #32519
T1 sequence (Q9H8M2 136-240 limits assumed): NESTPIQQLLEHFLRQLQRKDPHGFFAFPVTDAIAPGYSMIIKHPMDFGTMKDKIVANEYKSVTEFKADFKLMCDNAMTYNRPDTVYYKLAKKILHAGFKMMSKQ
Type: binding
Excerpt: BRD9-H4 Tetraacetylated Peptide Inhibition AlphaScreen
This assay is used to identify compounds which inhibit the interaction of the bromodomain of BRD9 with a tetra-acetylated peptide based on the sequence of histone H4 (termed the “BET Bromodomain ligand” as purchased from BPS Biosciences).
A GST fusion protein of the bromodomain of BRD9 and an acetylated histone H4 peptide (the “BET Bromodomain Ligand” are purchased as part of the BRD9 Inhibitor Screening Assay Kit at BPS Biosciences (Cat. Number: #32519)
AlphaScreen Beads (Perkin Elmer):
AlphaLISA Glutathione Acceptor Beads
AlphaScreen Streptavidin Donor Beads
Assay plates: Proxiplate-384 PLUS, white (PerkinElmer)
The assay is done in a darkened room below 100 Lux.
Compounds are dispensed onto assay plates using an Access Labcyte Workstation with the Labcyte Echo 550 from a DMSO solution. For the chosen highest concentration of 100 μM, 150 nl of compound solution are transferred from a 10 mM DMSO solution. A series of 11 concentrations is transferred for each compound at which each concentration is five-fold lower than the previous one (i.e. 100 μM, 20 μM, 4 μM, 0.8 μM, etc). DMSO is added such that every well has a total of 150 nl of DMSO.
15 μl of the resulting mix are added to the assay plates that contain 150 nl of the compounds. After 60 min at room temperature the signal is measured in a PerkinElmer Envision HTS Multilabel Reader using the AlphaScreen specifications from PerkinElmer.
Each plate contains negative controls where biotinylated BET Bromodomain Ligand and GST-BRD9 are left out and replaced by assay buffer. Negative control values are entered as low basis value when using the software GraphPad Prism for calculations.

SMILES	IC50
CNc1cccc2c(=O)n(C)cc(-c3ccc(C)c(NS(C)(=O)=O)c3)c12 [II-39, N-[2-Methyl-5-(2-methyl-5-methylamino-1-oxo-1,2-dihydro-isoquinolin-4-yl)-phenyl]-methanesulfonamide]	7.83 µM
CNc1ccc2c(-c3ccc(C)c(NS(C)(=O)=O)c3)cn(C)c(=O)c2c1 [II-40]	5.44 µM
CCn1cc(-c2ccc(C)c(NS(C)(=O)=O)c2)c2cc[nH]c2c1=O [III-1, N-[5-(6-Ethyl-7-oxo-6,7-dihydro-1H-pyrrolo[2,3-c]pyridin-4-yl)-2-methyl-phenyl]-methanesulfonamide]	0.645 µM
